Inconclusive results and toxic doses are left out.
Test system: L1210 leukemia ip in BDF1 mice, survival T/C
Assay: NCI In Vivo Anticancer Drug Screen. Data for tumor model L1210 Leukemia (intraperitoneal) in B6D2F1 (BDF1) mice
Details: endpoint: mean survival time, higher = longer survival
How it was run: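 Mice bearing the transplanted tumor received compound or vehicle. Survival of the treated group was divided by that of the vehicle-treated control group to give the ratio.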

[1] = dose: 100.0 mg/kg/injection, schedule: Q04DX003 (ip), vehicle: saline with Tween-80
[2] = dose: 200.0 mg/kg/injection, schedule: Q04DX003 (ip), vehicle: saline with Tween-80
[3] = dose: 400.0 mg/kg/injection, schedule: Q04DX003 (ip), vehicle: saline with Tween-80
[4] = dose: 50.0 mg/kg/injection, schedule: Q01DX009 (ip), vehicle: saline with Tween-80
[5] = dose: 100.0 mg/kg/injection, schedule: Q01DX009 (ip), vehicle: saline with Tween-80
[6] = dose: 200.0 mg/kg/injection, schedule: Q01DX009 (ip), vehicle: saline with Tween-80
[7] = dose: 100.0 mg/kg/injection, schedule: Q04DX003 (ip), vehicle: Klucel (hydroxypropylcellulose) (HPC)
[8] = dose: 200.0 mg/kg/injection, schedule: Q04DX003 (ip), vehicle: Klucel (hydroxypropylcellulose) (HPC)

## CS/C(N)=N\C(=O)N(C)C
[1]
  T/C: 97 % of control
[2]
  T/C: 98 % of control
[3]
  T/C: 101 % of control

## CCOC(=O)CC(=O)c1ccc(C(=O)CC(=O)O)cc1 (tested in a mixture with another compound)
dose: 25.6 mg/kg/injection, schedule: Q04DX002 (ip), vehicle: saline with Tween-80
  T/C: 87 % of control
[4]
  T/C: 89 % of control
dose: 64.0 mg/kg/injection, schedule: Q04DX002 (ip), vehicle: saline with Tween-80
  T/C: 95 % of control
[5]
  T/C: 96 % of control
[1]
  T/C: 90 % of control
dose: 160.0 mg/kg/injection, schedule: Q04DX002 (ip), vehicle: saline with Tween-80
  T/C: 91 % of control
[6]
  T/C: 88 % of control
[2]
  T/C: 87 % of control
dose: 400.0 mg/kg/injection, schedule: Q04DX002 (ip), vehicle: saline with Tween-80
  T/C: 87 % of control

## CC(C)(C)C(=O)OCn1cnc(=N)c2[nH]cnc21
[7]
  T/C: 100 % of control
[8]
  T/C: 108 % of control

## C=CCN(C)/N=N/c1[nH]ncc1C(N)=O
dose: 14.5 mg/kg/injection, schedule: Q01DX009 (ip), vehicle: saline with Tween-80
  T/C: 116 % of control
dose: 44.0 mg/kg/injection, schedule: Q04DX003 (ip), vehicle: saline with Tween-80
  T/C: 114 % of control
[4]
  T/C: 157 % of control
dose: 50.0 mg/kg/injection, schedule: Q04DX003 (ip), vehicle: saline with Tween-80
  T/C: 119 % of control
dose: 67.0 mg/kg/injection, schedule: Q04DX003 (ip), vehicle: saline with Tween-80
  T/C: 114 % of control
dose: 100.0 mg/kg/injection, schedule: Q01DX001 (ip), vehicle: saline with Tween-80
  T/C: 109 % of control
[5]
  T/C: 154 % of control
[6]
  T/C: 88 % of control

## O=C(Nc1ccc(S(=O)(=O)O)cc1)c1ccc([N+](=O)[O-])cc1
dose: 50.0 mg/kg/injection, schedule: Q01DX001 (ip), vehicle: saline
  T/C: 92 % of control
dose: 100.0 mg/kg/injection, schedule: Q01DX001 (ip), vehicle: saline
  T/C: 103 % of control
dose: 100.0 mg/kg/injection, schedule: Q01DX009 (ip), vehicle: saline
  T/C: 95 % of control
dose: 100.0 mg/kg/injection, schedule: Q04DX003 (ip), vehicle: saline
  T/C: 100 % of control
dose: 200.0 mg/kg/injection, schedule: Q01DX001 (ip), vehicle: saline
  T/C: 97 % of control
dose: 200.0 mg/kg/injection, schedule: Q01DX009 (ip), vehicle: saline
  T/C: 102 % of control
dose: 200.0 mg/kg/injection, schedule: Q04DX003 (ip), vehicle: saline
  T/C: 91 % of control
dose: 400.0 mg/kg/injection, schedule: Q01DX001 (ip), vehicle: saline
  T/C: 97 % of control
dose: 400.0 mg/kg/injection, schedule: Q01DX009 (ip), vehicle: saline
  T/C: 100 % of control
dose: 400.0 mg/kg/injection, schedule: Q04DX003 (ip), vehicle: saline
  T/C: 100 % of control

## CCOC(=O)C1(C(=O)OCC)C(C)CC(O)N1C(=O)c1cc2c(cc1[N+](=O)[O-])OCO2 (stereo unspecified)
dose: 25.0 mg/kg/injection, schedule: Q04DX003 (ip), vehicle: Klucel (hydroxypropylcellulose) (HPC)
  T/C: 94 % of control
dose: 50.0 mg/kg/injection, schedule: Q04DX003 (ip), vehicle: Klucel (hydroxypropylcellulose) (HPC)
  T/C: 94 % of control
[7]
  T/C: 89 % of control

## CN(CCN(C)C(=S)S)C(=S)S
dose: 100.0 mg/kg/injection, schedule: Q01DX002 (ip), vehicle: saline
  T/C: 99 % of control
dose: 200.0 mg/kg/injection, schedule: Q01DX002 (ip), vehicle: saline
  T/C: 99 % of control
dose: 400.0 mg/kg/injection, schedule: Q01DX002 (ip), vehicle: saline
  T/C: 105 % of control

## CC(=O)CC(=O)NC1CCCC1
dose: 100.0 mg/kg/injection, schedule: Q01DX009 (ip), vehicle: Klucel (hydroxypropylcellulose) (HPC)
  T/C: 103 % of control
[7]
  T/C: 100 % of control
dose: 200.0 mg/kg/injection, schedule: Q01DX009 (ip), vehicle: Klucel (hydroxypropylcellulose) (HPC)
  T/C: 100 % of control
[8]
  T/C: 100 % of control
dose: 400.0 mg/kg/injection, schedule: Q01DX009 (ip), vehicle: Klucel (hydroxypropylcellulose) (HPC)
  T/C: 100 % of control
dose: 400.0 mg/kg/injection, schedule: Q04DX003 (ip), vehicle: Klucel (hydroxypropylcellulose) (HPC)
  T/C: 100 % of control

## Nc1ncnc2c1ncn2C1OC(C(=O)NO)C(O)C1O (stereo unspecified)
dose: 0.78 mg/kg/injection, schedule: Q01DX009 (ip), vehicle: saline
  T/C: 106 % of control
dose: 1.56 mg/kg/injection, schedule: Q01DX005 (ip), vehicle: saline
  T/C: 104 % of control
dose: 1.56 mg/kg/injection, schedule: Q01DX009 (ip), vehicle: saline
  T/C: 123 % of control
dose: 3.12 mg/kg/injection, schedule: Q01DX005 (ip), vehicle: saline
  T/C: 121 % of control

## CN=C(N)C(N)=NC
[1]
  T/C: 104 % of control
[2]
  T/C: 102 % of control
[3]
  T/C: 95 % of control
